Where two headings read alike, the source gives them in different places.
What was measured:
[1] = target: tyrosinase; details: literature [6]; read-out: IC50, tyrosinase diphenolase activity; cited from earlier work
[2] = cream, 7-day application before UV exposure, compared to untreated skin; literature [8]; cited from earlier work
[3] = system: reconstituted human epidermis EpiDerm; details: 21 h, 0.01 %
Procedure: Phototoxicity Studies in a Model of Reconstructed Human Epidermis.
An epidermis with an area of 0.6 cm^2 was used. After receiving the tissue, the inserts were transferred to fresh medium and incubated in an incubator (5% CO2, 37° C.). All work during epidermis culture and application of the tested compounds and formulations was carried out in a laminar air flow chamber, using aseptic principles and sterile reagents and utensils. […] The applied solutions and formulation were spread on the surface of the inserts using a sterile glass bulb headed Pasteur pipette. The plates were incubated in the incubator for 21 hours, after which the inserts were transferred to new 6-well plates with 0.9 mL DBPS. 1 plate was exposed to UVA radiation at a dose of 6 J/cm^2 using a solar light simulator (Solar Simulator, Atlas) as its source (+UVA plate). The second plate was placed in a dark place outside the incubator for the same period of time (−UVA plate). After exposure, inserts from both plates were rinsed with DPBS, dried with a sterile cotton bud and placed in new plates containing 0.9 mL of fresh growth medium and incubated for 21 hours. […] After this time, the formed formazan was extracted into isopropanol and the absorbance of all samples was read at 270 nm.

[4] = system: Balb/c 3T3 murine fibroblast cell line; experiment: Phototoxicity, neutral red uptake in Balb/c 3T3 fibroblasts
Procedure: d) Phototoxicity Assessment Using the Balb/c 3T3 Murine Fibroblast Cell Line
Balb/c 3T3 cells, which are an immortalized murine fibroblast cell line, were purchased at ATTC and cultured in the medium recommended by the manufacturer (DMEM GlutaMAX, newborn calf serum (BCS), antibiotics). After multiplication, cells were placed in 96-well plates, which were incubated for 24 hours, after which all wells of the plates were washed with 150 μL of balanced salt solution (HBSS). Then, after drying the plates, 100 μL of a solution of the tested compounds in HBSS with 2% FBS was added to each well and incubated for an hour. After this time, some of the plates were irradiated using the Suntest CPS+sunlight simulator from Atlas with appropriate filters cutting off radiation with a wavelength <320 nm (UVA radiation intensity 5 J/cm^2). The second part of the plates was placed in radiation-free conditions for the same period of time. After the exposure time, the liquid was removed from all plates and the wells were washed twice with 150 μL of HBSS, then supplemented with fresh culture medium and incubated for 24 hours in an incubator (37° C., 5% CO2). Viability was assessed in the neutral red uptake test, which is based on the ability of the dye to penetrate only into living cells. Dye uptake was confirmed by absorbance measurement at 540 nm. […] The appropriate coefficients were also calculated: mean phototoxic effect (MPE) and photoirritation factor (PIF). PIF is the ratio of the IC50 values of unirradiated to irradiated cells, while MPE is based on the comparison of concentration-response curves.

[5] = system: tyrosinase; details: literature [11], cited from earlier work
[6] = system: human reconstructed epidermis Episkin; experiment: Skin irritation test in reconstructed human epidermis Episkin; assay type: cell-based; details: 15 min exposure
From the text: Skin Irritation Tests in a Reconstructed Human Epidermis Model (Episkin™)

O=C(O)C=Cc1ccc(O)cc1 [4-Hydroxycinnamic acid]
IC50 [1]: 500 µM | inhibition of erythema formation [2]: 77%

CN(C)CCCN1c2ccccc2Sc2ccc(Cl)cc21 [Chlorpromazine, reference compound]
Viability [% relative to water] ± SD, +UVA [3]: 26.97 ± 6.05 % relative to water | Viability [% relative to water] ± SD, −UVA [3]: 99.52 ± 9.41 % relative to water | phototoxic potential [4]: clearly indicate its phototoxic potential | MPE (mean phototoxic effect) ([4]; mouse, 1 h): 0.499 | PIF (photoirritation factor) ([4]; mouse, 1 h): 25.618

CCOC(=O)[C@H](Cc1ccccc1)NC(=O)/C=C/c1ccc(O)c(OC)c1 [N-[3-(4-hydroxy-3-methoxyphenyl)-1-oxo-2-propen-1-yl]-L-phenylalanine ethyl ester]
type of tyrosinase inhibition [5]: mixed type of inhibition | IC50 ([5]; read-out: IC50, tyrosinase inhibition): 0.185 ± 0.005 µM

CCCCCCCCCCCCOS(=O)(=O)[O-].[Na+] [SDS, sodium dodecyl sulphate]
IL-1α concentration in the culture medium ([6]; 42 h incubation, compounds as PEG400 solutions 26 mg/cm^2, SDS 5% aqueous): >250 pg/mL | tissue viability ([6]; compared to the negative control (PBS and PEG400), 5% aqueous SDS): 23.8%
